System: CSPG-ECM components (mixed CSPGs, aggrecan, chondroitin 4-sulfate)
Experiment: CSPG-ECM binding assay with insulin-FITC in vitro
Description: To determine the interaction of insulin with CSPG-ECM components in vitro, flat-bottom 96-well plates were first coated with 10 μg/ml poly-L-lysine overnight, followed by a rinsing with water. A purified CSPGs mix containing neurocan, phosphacan, versican and aggrecan (CC117, Merck Millipore, MA), purified aggrecan ([…], Merck Millipore, MA) or purified chondroitin 4-sulfate ([…], Selleck Chemicals, TX), were coated onto the 96-well plates at a concentration of 10 μg/ml for 4 h at RT, followed by a rinse with water. Insulin-FITC was incubated on plates containing ECM at concentrating ranging from 5 ng/ml-1 mg/ml for 2 h at RT and protected from light. Control wells contained either no ECM, bovine serum albumin (10 μg/ml) or poly-L-lysine alone. Wells were washed 3 times with water and imaged at 495 nm using a SPECTROstar Nano Microplate Reader (BMG Labtech, Germany). To digest CSPG-ECM or to negate CSPG-ECM negative charge. wells were incubated with either chABC (0.5 U/ml) or poly-l-arginine (10 μg/ml, […], Merck Millipore, MA) for 1 h at 37° C. after the ECM coating, washed 3 times with water and then incubated with insulin-FITC.

Row | insulin-ECM interactions (insulin-FITC with CSPG mix) in the presence of the agent (in the presence of poly-arginine) | binding of insulin-FITC to mixed CSPGs, aggrecan and C4S (2-hours incubation on coated plates) | Substance
1 | significantly reduced | – | poly-arginine
2 | – | specific dose-dependent binding | insulin-FITC: fluorescein isothiocyanate tagged insulin

Reference: US20260174677A1, “METHODS OF TREATING INSULIN RESISTANCE AND ASSOCIATED DISORDERS” (The University of Melboune, priority 2022, published 2026)
